Measured values taken from patent US10695337B2, “Piperidin-4-yl azetidine derivatives as JAK1 inhibitors” (Incyte Corporation, priority 2010, dated 2020).

Molecular target: human JAK1 (a.a. 837-1142)
Experiment: In vitro JAK kinase assay (HTRF, phosphorylation of a biotinylated peptide), JAK1
Format: biochemical
Conditions: measured at 1 mM ATP; JAK2 IC50 / JAK1 IC50
Method in brief: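 N-terminal His-tagged catalytic domains, baculovirus-expressed in insect cells, phosphorylated a biotinylated peptide for 1 hr at room temperature. EDTA stop was followed by SA-APC and Eu-Py20 antibody for 40 minutes, with phosphopeptide read by HTRF.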

| IC50 Ratio JAK2/JAK1 | SMILES |
| --- | --- |
| 2.1 | N#CCC1(n2cc(-c3ncnc4[nH]ccc34)cn2)CN(C2CCN(S(=O)(=O)c3ccc(C#N)cc3)CC2)C1 [Example 249, 4-[(4-{3-(cyanomethyl)-3-[4-(7H-pyrrolo[2,3-d]pyrimidin-4-yl)-1H-pyrazol-1-yl]azetidin-1-yl}piperidin-1-yl)sulfonyl]benzonitrile] |
| 4.7 | CN(C)c1ccc(S(=O)(=O)N2CCC(N3CC(CC#N)(n4cc(-c5ncnc6[nH]ccc56)cn4)C3)CC2)cc1C#N [Example 250, 5-[(4-{3-(cyanomethyl)-3-[4-(7H-pyrrolo[2,3-d]pyrimidin-4-yl)-1H-pyrazol-1-yl]azetidin-1-yl}piperidin-1-yl)sulfonyl]-2-(dimethylamino)benzonitrile] |
| 4.9 | Cn1ccc(S(=O)(=O)N2CCC(N3CC(CC#N)(n4cc(-c5ncnc6[nH]ccc56)cn4)C3)CC2)n1 [Example 251, {1-{1-[(1-methyl-1H-pyrazol-3-yl)sulfonyl]piperidin-4-yl}-3-[4-(7H-pyrrolo[2,3-d]pyrimidin-4-yl)-1H-pyrazol-1-yl]azetidin-3-yl}acetonitrile] |
| 5.8 | N#CCC1(n2cc(-c3ncnc4[nH]ccc34)cn2)CN(C2CCN(S(=O)(=O)C3CCCC3)CC2)C1 [Example 253, {1-[1-(cyclopentylsulfonyl)piperidin-4-yl]-3-[4-(7H-pyrrolo[2,3-d]pyrimidin-4-yl)-1H-pyrazol-1-yl]azetidin-3-yl}acetonitrile] |
| 5.0 | Cn1cnc(S(=O)(=O)N2CCC(N3CC(CC#N)(n4cc(-c5ncnc6[nH]ccc56)cn4)C3)CC2)c1 [Example 258, {1-{1-[(1-methyl-1H-imidazol-4-yl)sulfonyl]piperidin-4-yl}-3-[4-(7H-pyrrolo[2,3-d]pyrimidin-4-yl)-1H-pyrazol-1-yl]azetidin-3-yl}acetonitrile] |
| 4.6 | Cc1nc(S(=O)(=O)N2CCC(N3CC(CC#N)(n4cc(-c5ncnc6[nH]ccc56)cn4)C3)CC2)cn1C [Example 259, {1-{1-[(1,2-dimethyl-1H-imidazol-4-yl)sulfonyl]piperidin-4-yl}-3-[4-(7H-pyrrolo[2,3-d]pyrimidin-4-yl)-1H-pyrazol-1-yl]azetidin-3-yl}acetonitrile] |
| 7.1 | Cc1noc(C)c1S(=O)(=O)N1CCC(N2CC(CC#N)(n3cc(-c4ncnc5[nH]ccc45)cn3)C2)CC1 [Example 260, {1-{1-[(3,5-dimethylisoxazol-4-yl)sulfonyl]piperidin-4-yl}-3-[4-(7H-pyrrolo[2,3-d]pyrimidin-4-yl)-1H-pyrazol-1-yl]azetidin-3-yl}acetonitrile] |
| 7.4 | N#CCC1(n2ccc(-c3ncnc4[nH]ccc34)c2)CN(C2CCN(C(=O)c3cccc(C#N)c3)CC2)C1 [Example 262, 3-[(4-{3-(cyanomethyl)-3-[3-(7H-pyrrolo[2,3-d]pyrimidin-4-yl)-1H-pyrrol-1-yl]azetidin-1-yl}piperidin-1-yl)carbonyl]benzonitrile] |
| 9.5 | N#CCC1(n2ccc(-c3ncnc4[nH]ccc34)c2)CN(C2CCN(C(=O)c3ccc(C#N)cc3F)CC2)C1 [Example 264, 4-[(4-{3-(cyanomethyl)-3-[3-(7H-pyrrolo[2,3-d]pyrimidin-4-yl)-1H-pyrrol-1-yl]azetidin-1-yl}piperidin-1-yl)carbonyl]-3-fluorobenzonitrile] |
| 6.6 | N#CCC1(n2ccc(-c3ncnc4[nH]ccc34)c2)CN(C2CCN(C(=O)c3c(F)cc(C#N)cc3F)CC2)C1 [Example 265, 4-[(4-{3-(cyanomethyl)-3-[3-(7H-pyrrolo[2,3-d]pyrimidin-4-yl)-1H-pyrrol-1-yl]azetidin-1-yl}piperidin-1-yl)carbonyl]-3,5-difluorobenzonitrile] |
| 6.6 | N#CCC1(n2ccc(-c3ncnc4[nH]ccc34)c2)CN(C2CCN(C(=O)c3cc(F)ccc3C(F)(F)F)CC2)C1 [Example 266, {1-{1-[5-fluoro-2-(trifluoromethyl)benzoyl]piperidin-4-yl}-3-[3-(7H-pyrrolo[2,3-d]pyrimidin-4-yl)-1H-pyrrol-1-yl]azetidin-3-yl}acetonitrile] |
